Where two headings read alike, the source gives them in different places.
How the values were obtained:
3CL^pro [1] = molecular target: T1, 3CL^pro (Severe acute respiratory syndrome coronavirus 2, UniProt P0DTD1); conditions: for IC50: read-out: IC50 against 3CL^pro
[2] = tested on: SARS-CoV-2 infected Vero E6 cells
[3] = tested on: SARS-CoV-2 infected Vero E6 cells; type: cell-based; conditions: immunofluorescence microscopy
Vero E6 cells = conditions: read-out: CC50 Vero E6
[4] = tested on: SARS-CoV-2 infected Huh 7.5.1 cells; conditions: for EC50: read-out: EC50 Huh 7.5.1
Huh 7.5.1 cells = conditions: read-out: CC50 Huh 7.5.1
cathepsin B = cathepsin B (Homo sapiens, UniProt P07858); experiment: Cathepsin B enzymatic assay; type: biochemical; conditions: read-out: IC50 against Cathepsin B; three independent experiments
[5] = molecular target: dipeptidyl peptidase-4 (DPP4) (Homo sapiens, UniProt P27487); experiment: DPP4 enzymatic assay; type: biochemical; conditions: read-out: IC50 against DPP4; three independent experiments
Sequence of dipeptidyl peptidase-4 (DPP4) (P27487 whole entry): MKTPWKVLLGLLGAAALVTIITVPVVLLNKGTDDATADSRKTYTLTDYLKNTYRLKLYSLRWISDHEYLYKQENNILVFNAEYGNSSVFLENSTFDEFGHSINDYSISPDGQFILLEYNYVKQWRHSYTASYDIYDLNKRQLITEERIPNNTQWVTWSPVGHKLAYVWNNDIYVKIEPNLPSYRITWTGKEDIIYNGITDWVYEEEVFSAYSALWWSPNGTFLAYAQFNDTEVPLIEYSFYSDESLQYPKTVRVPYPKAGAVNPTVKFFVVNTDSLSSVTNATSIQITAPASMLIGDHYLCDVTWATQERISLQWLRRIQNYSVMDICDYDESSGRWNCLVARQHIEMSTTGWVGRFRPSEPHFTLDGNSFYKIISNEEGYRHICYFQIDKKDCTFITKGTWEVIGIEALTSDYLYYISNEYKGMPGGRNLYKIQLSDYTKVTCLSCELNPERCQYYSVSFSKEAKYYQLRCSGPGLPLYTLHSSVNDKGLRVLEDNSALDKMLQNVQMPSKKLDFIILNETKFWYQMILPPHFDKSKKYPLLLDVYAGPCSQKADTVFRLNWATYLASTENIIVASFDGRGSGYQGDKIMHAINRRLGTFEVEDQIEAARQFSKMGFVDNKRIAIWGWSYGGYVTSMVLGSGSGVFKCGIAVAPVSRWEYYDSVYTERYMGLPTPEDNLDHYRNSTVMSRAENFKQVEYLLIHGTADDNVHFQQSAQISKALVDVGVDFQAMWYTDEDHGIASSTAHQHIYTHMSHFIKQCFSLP

cathepsin L = cathepsin L (Homo sapiens, UniProt P07711); experiment: Cathepsin L enzymatic assay; type: biochemical; conditions: read-out: IC50 against Cathepsin L; three independent experiments
Sequence of cathepsin L (P07711 114-333): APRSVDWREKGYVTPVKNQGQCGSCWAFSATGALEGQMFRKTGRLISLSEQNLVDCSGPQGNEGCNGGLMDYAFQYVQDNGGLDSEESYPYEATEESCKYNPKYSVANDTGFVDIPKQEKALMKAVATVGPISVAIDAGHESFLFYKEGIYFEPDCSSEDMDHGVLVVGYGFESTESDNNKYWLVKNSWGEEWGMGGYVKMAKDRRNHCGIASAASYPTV

[6] = molecular target: transmembrane serine protease 2 (TMPRSS2) (Homo sapiens, UniProt O15393); experiment: TMPRSS2 enzymatic assay; type: biochemical; conditions: read-out: IC50 against TMPRSS2; three independent experiments
Sequence of transmembrane serine protease 2 (TMPRSS2) (O15393 whole entry): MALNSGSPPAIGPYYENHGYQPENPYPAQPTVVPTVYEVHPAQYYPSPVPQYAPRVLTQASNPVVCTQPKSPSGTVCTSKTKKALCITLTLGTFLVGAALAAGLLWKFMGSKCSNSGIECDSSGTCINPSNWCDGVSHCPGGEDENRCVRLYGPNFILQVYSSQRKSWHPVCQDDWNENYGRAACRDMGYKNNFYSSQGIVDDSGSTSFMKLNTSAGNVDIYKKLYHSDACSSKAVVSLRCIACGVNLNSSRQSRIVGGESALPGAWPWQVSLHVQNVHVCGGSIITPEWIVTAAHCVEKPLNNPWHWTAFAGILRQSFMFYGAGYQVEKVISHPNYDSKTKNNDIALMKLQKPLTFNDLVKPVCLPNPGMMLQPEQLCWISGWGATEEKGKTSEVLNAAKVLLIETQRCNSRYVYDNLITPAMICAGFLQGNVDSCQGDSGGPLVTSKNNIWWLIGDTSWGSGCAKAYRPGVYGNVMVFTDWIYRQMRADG

[7] = molecular target: SARS-CoV-2 Papain-like protease (PL^pro) (Severe acute respiratory syndrome coronavirus 2, UniProt P0DTD1); type: biochemical; conditions: read-out: IC50 against PL^pro
Furin = Furin (Homo sapiens, UniProt P09958); type: biochemical; conditions: read-out: IC50 against Furin; three independent experiments
Sequence of Furin (P09958 108-794): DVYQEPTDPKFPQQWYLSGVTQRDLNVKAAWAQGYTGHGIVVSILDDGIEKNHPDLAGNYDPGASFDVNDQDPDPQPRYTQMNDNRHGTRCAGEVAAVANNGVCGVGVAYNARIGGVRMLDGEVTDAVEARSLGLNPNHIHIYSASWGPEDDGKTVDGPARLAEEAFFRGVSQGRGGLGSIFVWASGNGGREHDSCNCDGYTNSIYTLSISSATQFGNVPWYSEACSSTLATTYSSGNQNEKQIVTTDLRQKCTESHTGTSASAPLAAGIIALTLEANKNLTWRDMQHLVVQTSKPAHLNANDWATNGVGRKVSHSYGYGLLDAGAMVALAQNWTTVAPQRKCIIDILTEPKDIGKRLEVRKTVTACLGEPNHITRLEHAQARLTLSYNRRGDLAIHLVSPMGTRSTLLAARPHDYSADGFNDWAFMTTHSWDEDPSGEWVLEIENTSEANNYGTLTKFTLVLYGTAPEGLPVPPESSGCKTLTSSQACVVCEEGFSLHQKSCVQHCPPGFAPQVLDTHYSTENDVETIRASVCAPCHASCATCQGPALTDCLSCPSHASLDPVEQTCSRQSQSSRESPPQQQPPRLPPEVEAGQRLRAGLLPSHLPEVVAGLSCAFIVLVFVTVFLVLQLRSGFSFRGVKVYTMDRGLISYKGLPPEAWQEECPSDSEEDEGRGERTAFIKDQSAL

beta-secretase 1 (BACE1) = beta-secretase 1 (BACE1) (Homo sapiens, UniProt P56817); type: biochemical; conditions: read-out: IC50 against BACE1; three independent experiments
Sequence of beta-secretase 1 (BACE1) (P56817 46-501): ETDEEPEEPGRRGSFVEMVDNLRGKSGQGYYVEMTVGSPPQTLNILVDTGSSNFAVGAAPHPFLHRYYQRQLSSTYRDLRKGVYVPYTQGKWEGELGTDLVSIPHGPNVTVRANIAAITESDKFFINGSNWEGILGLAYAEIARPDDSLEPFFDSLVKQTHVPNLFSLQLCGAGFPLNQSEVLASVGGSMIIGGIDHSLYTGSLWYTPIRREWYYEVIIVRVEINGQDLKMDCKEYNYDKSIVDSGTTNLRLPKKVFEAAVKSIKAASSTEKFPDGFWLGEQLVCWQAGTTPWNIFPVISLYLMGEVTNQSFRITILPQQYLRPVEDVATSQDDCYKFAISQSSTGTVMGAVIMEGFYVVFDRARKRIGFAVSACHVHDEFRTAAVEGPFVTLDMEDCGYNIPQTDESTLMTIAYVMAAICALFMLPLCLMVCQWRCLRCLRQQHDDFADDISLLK

3CL^pro [8] = molecular target: T1, 3CL^pro
[9] = Axial ligand exchange with DMSO, DMF or water followed by 1H-NMR; type: physicochemical
3CL^pro [10] = molecular target: T1, 3CL^pro; remark: listed apart in the source
Aqueous solubility tests = type: physicochemical; conditions: 0.4–0.1% DMSO or DMF in phosphate-buffered saline
[11] = tested on: SARS-CoV-2 infected Huh 7.5.1 cells; experiment: microbe, parasite or virus in culture; conditions: Severe acute respiratory syndrome coronavirus 2, Huh-7.5.1, 48 h, read-out: EC50 Huh 7.5.1
in vitro [12] = conditions: human
in vitro [13] = conditions: African green monkey

In the case of `Nc1cccc(C(=O)[O-])n1.[C-]#[O+].[C-]#[O+].[C-]#[O+].[Re+]` [Compound 40], the IC50 (3CL^pro [1]) is reported as 10.9 ± 3.1 µM.

With `CN1CCN(C(=O)N[C@@H](Cc2ccccc2)C(=O)N[C@H](/C=C/S(=O)(=O)c2ccccc2)CCc2ccccc2)CC1` [K777] the “SI Vero E6 (CC50/EC50; therapeutic index)” value ([2]; Vero E6 cells) was greater than 222, the EC50 ([2]; read-out: EC50 Vero E6) was 0.009 ± 0.002 µM and the “concentration protecting cells from viral infection” value [3] was no more than 125 nM. The CC50 (Vero E6 cells) was greater than 2 µM, the EC50 [4] was greater than 2 µM and the CC50 (Huh 7.5.1 cells) was greater than 2 µM.

In the case of `O=C([O-])c1cc(O)ccn1.[C-]#[O+].[C-]#[O+].[C-]#[O+].[Re+]` [Compound 18], the IC50 (cathepsin B) is reported as greater than 100 µM, the IC50 [5] is reported as greater than 100 µM and the IC50 (cathepsin L) is reported as 67 ± 9 µM. It also gave an IC50 [6] greater than 100 µM, an IC50 [7] greater than 100 µM and an IC50 (Furin) greater than 100 µM. For the same compound, the IC50 (3CL^pro [1]) was 4.6 ± 0.5 µM and the IC50 (beta-secretase 1 (BACE1)) was 76 ± 8 µM.

Work on `Nc1ccnc(C(=O)[O-])c1.[C-]#[O+].[C-]#[O+].[C-]#[O+].[Re+]` [Compound 20] yielded an IC50 (3CL^pro [1]) of 8.4 ± 2.2 µM.

For `O.O=C([O-])c1ccccn1.[C-]#[O+].[C-]#[O+].[C-]#[O+].[Re+]` [Compound 1, [Re(pic)(CO)3(H2O)]], the IC50 (cathepsin B) was greater than 100 µM, the IC50 [5] was greater than 100 µM and the “adduct formation with 3CL^pro (deconvoluted mass spectrum)” value (3CL^pro [8]) was “a single attached metal complex”. The “adduct formation with the GC376-3CL^pro adduct (binding competition)” value (3CL^pro [8]) was “did not show the formation of new products”, the “time to full exchange of the axial ligand in DMF-d7” value [9] was no more than 6 h and the “aqua ligand exchange in DMSO-d6” value ([9]; within 5 min) was “rapid exchange of the aqua ligand with DMSO”. For the same compound, the “Re content bound to protein” value (3CL^pro [10]) was 0.7 ± 0.2 equivalents of Re per 3CL^pro, the IC50 (cathepsin L) was 53 ± 7 µM and the IC50 [6] was greater than 100 µM. It also gave an IC50 [7] greater than 100 µM, an IC50 (Furin) greater than 100 µM and an IC50 (3CL^pro [1]) of 9.1 ± 1.8 µM. The “precipitate or aggregate formation by DLS” value (Aqueous solubility tests) was “No particle formation or aggregation was observed” and the IC50 (beta-secretase 1 (BACE1)) was 83 ± 6 µM.

Work on `O=C([O-])c1ncccc1F.[C-]#[O+].[C-]#[O+].[C-]#[O+].[Re+]` [Compound 2] yielded an IC50 (3CL^pro [1]) of 19 ± 3.7 µM.

For `COc1cccc(C(=O)[O-])n1.[C-]#[O+].[C-]#[O+].[C-]#[O+].[Re+]` [Compound 39], the IC50 (3CL^pro [1]) was 8.5 ± 1.9 µM.

For `O=C([O-])c1cccc(O)n1.[C-]#[O+].[C-]#[O+].[C-]#[O+].[Re+]` [Compound 38], the IC50 (3CL^pro [1]) was 8.8 ± 3.4 µM.

With `CCC(CC)COC(=O)[C@H](C)N[P@](=O)(OC[C@H]1O[C@@](C#N)(c2ccc3c(N)ncnn23)[C@H](O)[C@@H]1O)Oc1ccccc1` [Remdesivir] the EC50 [11] was less than 0.04 µM, the “SI Vero E6 (CC50/EC50; therapeutic index)” value ([2]; Vero E6 cells) was greater than 4 and the “SI Huh 7.5.1 (CC50/EC50; therapeutic index)” value ([4]; Huh 7.5.1 cells) was greater than 500. It also gave a CC50 (in vitro [12]) greater than 20 µM and a CC50 (in vitro [13]) greater than 20 µM.

In the case of `CS(C)=O.O=C([O-])c1ccccn1.[C-]#[O+].[C-]#[O+].[C-]#[O+].[Re+]` [1DMSO, [Re(pic)(CO)3(DMSO)]], the “SI Vero E6 (CC50/EC50; therapeutic index)” value [2] is reported as greater than 9, the “aqueous stability of the DMSO adduct” value ([9]; 2 : 8 DMSO-d6 : H2O, up to 6 h) is reported as “the majority of the compound remained as the DMSO adduct even after 6 h” and the “SI Huh 7.5.1 (CC50/EC50; therapeutic index)” value [4] is reported as 9. The EC50 [4] was 1.8 ± 0.5 µM, the “effect of extending the preincubation time on 3CL^pro inhibition” value (3CL^pro [1]) was “strongly enhance the inhibitory activity over time” and the IC50 (3CL^pro [1]) was 16.5 ± 3.4 µM. For the same compound, the CC50 (Huh 7.5.1 cells) was 16.5 ± 1.3 µM.
